Data reported in patent US20150104525A1, “METHOD OF DECREASING FEED CONVERSION RATIO IN FOWL” (Reoxcyn Discoveries Group, Inc., priority 2013, published 2015).

Tested on: NRF2
Test: Western Blot validation of NRF2 nuclear accumulation and extra-nuclear protein phosphorylation
Format: cell-based, human
Settings: HMVEC-L
Description: 8. A Western Blot analysis was done on extra-nuclear and intra-nuclear fractions, separated by differential centrifugation, of serum starved HMVEC-L cell cultures exposed to <1% of a composition of the invention compared with a positive hydrogen peroxide control to determine phosphorylation events (oxidant action) in the extra-nuclear fraction and NRF2 (antioxidant transcription) in the intra-nuclear fraction at 0, 30, 60, 90 and 120 min intervals.
Experimental Methods for Western Blot Validation of NRF2 Nuclear Accumulation: HMVEC-L were treated with 1% of a composition of the invention, nuclear extracts were separated through centrifugal differentiation from the extra-nuclear cytosol at 30, 60 and 120 min and subjected to Western Blot analysis for NRF2. In the Western blot experiment the extra-nuclear fraction was probed for phosphorylated proteins using a combination of anti-phospho serine, threonine and tyrosine antibodies. Virtually all cellular processes are regulated by posttranslational modifications and protein phosphorylation is a prevalent mechanism. […]

`OO` [H2O2, Hydrogen peroxide] was tested, and the “nuclear NRF2 levels” value (H2O2 positive control, 30 min) was “did not increase nuclear NRF2 levels” and the “phosphorylation of extra-nuclear protein” value (H2O2 treatment) was “marked increase in the phosphorylation”.
